Consider eleven compounds from PMC6220877, “Modified Peptide Inhibitors of the Keap1–Nrf2 Protein–Protein Interaction Incorporating Unnatural Amino Acids” (Chembiochem, 2018).

“And” between values parts separate entries of the source, which are not always exact repeats. Equal values may be shown once. Marks after values point to notes of the source that are not given here. Where a SMILES comes first, the peptide text is derived from it. [ ]: non-standard residue; d: D form. The star is where a group is joined. 2Thi = N[C@@H](Cc1cccs1)C(=O)O; Cha = N[C@@H](CC1CCCCC1)C(=O)O; X1 = CC(C)C[C@H](N*)c1nnn[nH]1; Tle = CC(C)(C)[C@H](N)C(=O)O; Pip = O=C(O)[C@@H]1CCCCN1; Thz = O=C(O)[C@@H]1CSCN1; NHIsopentyl = CC(C)CCN*; NHBn = c1ccc(CN*)cc1

Common to all, as to format: binding
In assay [1] the target is T1, Keap1 Kelch domain (Homo sapiens, UniProt Q14145).
T1 construct: made in house; host or cells: E. coli BL21 CodonPlus
Description: Fluorescence polarisation (FP) competition assay. Particulars: for IC50: FP assay, Keap1 Kelch domain; for Ki: estimated from FP IC50 by the method described by Kenakin (ref 14), read-out: FP calcd Ki; for Percentage inhibition in FP assay: 100 μM concentration of inhibitor.

The target in the next assay is T2, Keap1 Kelch protein (Homo sapiens, UniProt Q14145).
T2 construct: made in house; host or cells: E. coli BL21 CodonPlus
Description: Differential scanning fluorimetry (DSF) thermal shift screen. Particulars: 10% DMSO, DPBS pH 7.4, 30 min at RT, 25-95 °C at 1 °C/min, triplicate, Keap1 Kelch Tm 47.0±0.1 °C; for ΔTm at 10 µM: pH 7.4, 10 μM peptide; for DSF ΔTm: 10 μM peptide. For orientation: In DSF a fluorescence change marks the thermal transition of the protein.

Assay [2] concerns the target T1, Keap1 Kelch domain. Description: Isothermal titration calorimetry (ITC). The conditions noted are these: 25 °C, 50 μM protein, 500 μM peptide, 25 mM HEPES pH 7.4, 200 mM NaCl, 5% DMSO, mean of n≥2. For orientation: Isothermal titration calorimetry measures the heat released or taken up as one component is titrated into another.
Description: Isothermal titration calorimetry experiments
The protein was initially dialysed overnight against buffer containing 25 mM HEPES, pH 7.4
and 200 mM NaCl. The protein was diluted to a concentration of 50 μM prior to ITC. Inhibitors
were diluted to an appropriate concentration in dialysis buffer so that the final solution
contained no more than 5% DMSO. To maintain a similar buffer composition for titrations, 5%
DMSO was added to the protein solution. All peptides in this study were used at a
concentration of 500 μM. There were no detectable solubility issues at these concentrations
of the peptides in the dialysis buffer. ITC experiments were performed with a MicroCal PEAQ-
ITC instrument (Malvern Instruments, UK).
speed of around 750 rpm. In total 30 injections were performed for one protein inhibitor
experiment with the first injection of 0.3 μL followed by 29 injections of 1.3 μL and a gap of
120 s between each injection. Data analyses were performed after subtraction of the heats of
dilution for each experiment. The thermodynamic parameters N (stoichiometry), Kd
(dissociation constant/binding affinity), ∆S (entropy change) and ∆H (enthalpy change) were
obtained by using the single-site-binding model of the PEAQ-ITC analysis software (Malvern
Instruments, UK). For each experiment, at least two titrations were performed. Titration data
were analysed independently, and the obtained values were averaged.

T2 sequence (Q14145 321-609 limits assumed): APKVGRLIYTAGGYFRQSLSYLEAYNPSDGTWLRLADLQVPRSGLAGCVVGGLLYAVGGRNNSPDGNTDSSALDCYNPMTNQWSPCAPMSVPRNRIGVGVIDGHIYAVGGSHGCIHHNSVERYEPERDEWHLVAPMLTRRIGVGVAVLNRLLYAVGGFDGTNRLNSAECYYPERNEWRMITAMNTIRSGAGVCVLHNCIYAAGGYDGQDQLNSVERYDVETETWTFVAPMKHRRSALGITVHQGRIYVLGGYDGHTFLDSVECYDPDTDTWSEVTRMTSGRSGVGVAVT
T1 sequence (Q14145 321-609 limits assumed): as above
Description for Keap1 Kelch protein: DPBS at pH 7.4 was added to the wells of a MicroAmp® Optical 96-well reaction plate
containing the peptide inhibitor (10 µM, 10% final DMSO concentration, 40 µL final volume).
The plate was sealed using an optical adhesive cover and covered with aluminium foil to
protect the dye from light. The plate was then transferred to a plate centrifuge and spun down
briefly (200 g, 1 min, RT) to remove any bubbles and collect the solution at the bottom of the
wells. Following a 30 min incubation at RT, the plate was placed into a 7500 Real time PCR
machine and subjected to a standard protein melting protocol8 using the 7500 Software
1°C/min. All measurements were run in triplicate. The raw data were exported to MS Excel
and analysis was performed using a custom script provided by the Structural Genomics
Consortium Oxford.[8] The temperature range over which the protein unfolding occurred was
selected and the maximum and minimum (at temperatures below the maximum intensity)
fluorescence intensities within this range were determined. The processed data were fitted to
the Boltzmann equation by linear regression analysis using the Origin Pro software.

With `CC(=O)N[C@@H](CC(=O)O)C(=O)N1CCC[C@H]1C(=O)N[C@@H](CCC(=O)O)C(=O)N[C@H](C(=O)NCC(=O)N[C@@H](CCC(=O)O)C(=O)N[C@@H](CC(C)C)C(=O)NCCC(C)C)[C@@H](C)O` [compound 6, Ac‐Asp‐Pro‐Glu‐Thr‐Gly‐Glu‐Leu‐NH‐isopentyl] (Ac-DPETGEL-NHIsopentyl), at Keap1 Kelch domain [1], the IC50 worked out at 745 ± 126 nM and the Ki was 313 nM. For the same compound, the thermal shift (ΔTm) at 10 µM on Keap1 Kelch protein is approximately 2 °C.

`CC(=O)N[C@@H](CC(=O)O)C(=O)N1CCC[C@H]1C(=O)N[C@@H](CCC(=O)O)C(=O)N[C@H](C(=O)NCC(=O)N[C@@H](CCC(=O)O)C(=O)N[C@@H](CC(C)C)C(=O)NCc1ccccc1)[C@@H](C)O` [compound 7, Ac‐Asp‐Pro‐Glu‐Thr‐Gly‐Glu‐Leu‐NH‐Bn] (Ac-DPETGEL-NHBn): on Keap1 Kelch domain [1], the 50% inhibitory concentration (IC50) is 888 ± 28 nM and the inhibitory constant (Ki) was 373 nM. For the same compound, the ΔTm at 10 µM on Keap1 Kelch protein is approximately 2 °C.

Consider `CC(=O)N[C@@H](CC(=O)O)C(=O)N1CCC[C@H]1C(=O)N[C@@H](CCC(=O)O)C(=O)N[C@H](C(=O)NCC(=O)N[C@@H](CCC(=O)O)C(=O)N[C@@H](CC(C)C)c1nnn[nH]1)[C@@H](C)O` [compound 8, Ac‐Asp‐Pro‐Glu‐Thr‐Gly‐Glu‐Leu‐TET] (Ac-DPETGE-X1), for which, at Keap1 Kelch domain [1], the concentration for half-maximal inhibition (IC50) came to 374 ± 31 nM and the Ki is 157 nM. In addition, the ΔTm at 10 µM at Keap1 Kelch protein was 6.2 ± 0.3 °C.

`CC(=O)N[C@@H](CC(=O)O)C(=O)N1CCC[C@H]1C(=O)N[C@@H](CCC(=O)O)C(=O)N[C@H](C(=O)NCC(=O)N[C@@H](CCC(=O)O)C(=O)N[C@H](C(=O)O)C(C)(C)C)[C@@H](C)O` [compound 9, Ac‐Asp‐Pro‐Glu‐Thr‐Gly‐Glu‐Tle‐OH] (Ac-DPETGE[Tle]-OH): on Keap1 Kelch domain [1], the IC50 was 235 ± 16 nM and the Ki is 99 nM. Moreover, the thermal shift (ΔTm) at 10 µM at Keap1 Kelch protein is 5.8 ± 0.6 °C. In addition, at Keap1 Kelch domain [2], the “ITC TΔS” value is -1.69 ± 0.34 kcal/mol; the “ITC ΔG” value was -8.59 ± 0.12 kcal/mol; the “ITC ΔH” value is -10.25 ± 0.21 kcal/mol; the affinity, expressed as Kd, was 580 ± 90 nM.

Consider `CC(=O)N[C@@H](CC(=O)O)C(=O)N1CCC[C@H]1C(=O)N[C@@H](CCC(=O)O)C(=O)N[C@H](C(=O)NCC(=O)N[C@@H](CCC(=O)O)C(=O)N[C@@H](Cc1cccs1)C(=O)O)[C@@H](C)O` [compound 10, Ac‐Asp‐Pro‐Glu‐Thr‐Gly‐Glu‐Thi‐OH] (Ac-DPETGE[2Thi]-OH), for which, at Keap1 Kelch domain [1], the IC50 came out at 578 ± 25 nM and the Ki was 243 nM. Further, the thermal shift (ΔTm) at 10 µM on Keap1 Kelch protein worked out at 5.3 ± 0.2 °C.

On to `CC(=O)N[C@@H](CC(=O)O)C(=O)N1CCC[C@H]1C(=O)N[C@@H](CCC(=O)O)C(=O)N[C@H](C(=O)NCC(=O)N[C@@H](CCC(=O)O)C(=O)N[C@@H](CC1CCCCC1)C(=O)O)[C@@H](C)O` [compound 11, Ac‐Asp‐Pro‐Glu‐Thr‐Gly‐Glu‐Cha‐OH] (Ac-DPETGE[Cha]-OH), for which, at Keap1 Kelch domain [1], the IC50 worked out at 85 ± 14 nM and the Ki was 36 nM. On Keap1 Kelch protein, the ΔTm at 10 µM worked out at 5.8 ± 0.9 °C. Moreover, on Keap1 Kelch domain [2], the “ITC TΔS” value is -0.29 ± 0.001 kcal/mol, the “ITC ΔG” value is -9.57 ± 0.21 kcal/mol, the “ITC ΔH” value is -9.83 ± 0.22 kcal/mol and the equilibrium dissociation constant (Kd) worked out at 75 ± 6 nM.

As for `CC(=O)N[C@@H](CC(=O)O)C(=O)N1CSC[C@H]1C(=O)N[C@@H](CCC(=O)O)C(=O)N[C@H](C(=O)NCC(=O)N[C@@H](CCC(=O)O)C(=O)N[C@@H](CC(C)C)C(=O)O)[C@@H](C)O` [compound 15, Ac‐Asp‐Thp‐Glu‐Thr‐Gly‐Glu‐Leu‐OH] (Ac-D[Thz]ETGEL-OH), at Keap1 Kelch domain [1], the 50% inhibitory concentration (IC50) worked out at 89 ± 6 nM and the Ki was 37 nM. At Keap1 Kelch protein, the ΔTm at 10 µM turned out to be 8.3 ± 0.3 °C. Moreover, on Keap1 Kelch domain [2], the “ITC TΔS” value was -3.84 ± 0.31 kcal/mol, the “ITC ΔG” value was -8.95 ± 0.17 kcal/mol, the “ITC ΔH” value was -12.83 ± 0.33 kcal/mol and the Kd was 310 ± 10 nM.

Consider `CC(=O)N[C@@H](CC(=O)O)C(=O)N1CCCC[C@H]1C(=O)N[C@@H](CCC(=O)O)C(=O)N[C@H](C(=O)NCC(=O)N[C@@H](CCC(=O)O)C(=O)N[C@@H](CC(C)C)C(=O)O)[C@@H](C)O` [compound 16, Ac‐Asp‐Pip‐Glu‐Thr‐Gly‐Glu‐Leu‐OH] (Ac-D[Pip]ETGEL-OH), for which, on Keap1 Kelch domain [1], the IC50 was determined as 1060 ± 280 nM and the Ki is 447 nM. The shift in melting temperature (ΔTm) at 10 µM on Keap1 Kelch protein is approximately 2 °C.

For the compound “Ac-DPENGEL-OH [compound 14, Ac‐Asp‐Pro‐Glu‐Asn‐Gly‐Glu‐Leu‐OH]”, on Keap1 Kelch domain [1], the half-inhibitory concentration (IC50) came out at 3040 ± 310 nM and the Ki was 1280 nM. In addition, the ΔTm at 10 µM at Keap1 Kelch protein is approximately 0.5 °C.

For “Ac‐Asp‐Pro‐Glu‐Bap‐Gly‐Glu‐Leu‐OH [compound 13]”, the “Percentage inhibition in FP assay” value at Keap1 Kelch domain [1] stood at 27 %^[c]. The “DSF ΔTm” value on Keap1 Kelch protein was “≈ 0.5 °C and 0.5±0.1 °C”.

As for “Ac‐Asp‐Pro‐Glu‐hPhe‐Gly‐Glu‐Leu‐OH [compound 12]”, the “Percentage inhibition in FP assay” value on Keap1 Kelch domain [1] stood at 20 %^[c]. Also, at Keap1 Kelch protein, the “DSF ΔTm” value is “≈ 0.5 °C and 0.8±0.2 °C”.

Usually IC50 stands for the point on the concentration scale where inhibition reaches its midpoint. A word on the Ki: it is a dissociation constant, usually derived from enzyme kinetics or from competition with a known ligand. In general, ΔTm refers to the shift of the melting midpoint relative to a reference. The term Kd denotes the equilibrium constant for the complex coming apart. High values mean lower affinity, low ones higher affinity.
